Among the test systems are EKVX NSCLC; HCC-2998 colon; HL-60(TB) leukemia; HT29 colon; KM12 colon; M14 melanoma; MDA-MB-435; NCI-H23 lung; NCI-H460 lung; RPMI-8226 leukemia; RXF 393 renal; SF-268 CNS; SF-295 CNS; SK-MEL-2 melanoma; SK-OV-3 ovarian; SN12C renal; SNB-75 CNS; SW-620 colon; TK-10 renal; UACC-257 melanoma.
Assay in all cases: inhibition of tumour cell growth, NCI panel, 48 h

The structures appear in SMILES notation.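 Cells were grown in 96-well plates and exposed to each compound for 48 hours at five concentrations; endpoints were interpolated linearly between bracketing concentrations, or set to the highest concentration if not reached. At the TGI there is no net growth.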 A value given as a limit tells only on which side of the number the result lay.

Consider `O=C(Nc1nccs1)c1c(O)nc2sccn2c1=O`, for which the TGI in the experiment on EKVX NSCLC, in the experiment with HCC-2998 colon, in the experiment with HL-60(TB) leukemia, with HT29 colon, with KM12 colon and in the experiment on M14 melanoma was over 10 µM throughout. The TGI with MDA-MB-435, in the experiment with NCI-H23 lung, in the experiment with NCI-H460 lung, in the experiment with RPMI-8226 leukemia, in the experiment with RXF 393 renal and in the experiment with SF-268 CNS was over 10 µM throughout. In addition, the TGI in the experiment with SF-295 CNS, in the experiment with SK-MEL-2 melanoma, in the experiment on SK-OV-3 ovarian, in the experiment with SN12C renal, in the experiment on SNB-75 CNS and with SW-620 colon was over 10 µM each time. The molecule also gave a TGI in the experiment on TK-10 renal of over 10 µM.
Take `O=C(O)CCC(=O)OC1N=C(c2ccccc2Cl)c2cc([N+](=O)[O-])ccc2NC1=O` (centres undefined): the TGI with EKVX NSCLC, in the experiment on HCC-2998 colon, in the experiment on HL-60(TB) leukemia, in the experiment on HT29 colon, with KM12 colon and with M14 melanoma was over 100 µM throughout. Further, the TGI in the experiment on MDA-MB-435, with NCI-H23 lung, with NCI-H460 lung, in the experiment with RXF 393 renal, in the experiment with SF-268 CNS and in the experiment on SF-295 CNS was over 100 µM throughout. The TGI in the experiment with SK-MEL-2 melanoma, in the experiment with SK-OV-3 ovarian, with SN12C renal, with SNB-75 CNS, in the experiment with SW-620 colon and with TK-10 renal was over 100 µM each time. The same molecule returned a TGI with UACC-257 melanoma of over 100 µM.
`COc1ccc(-c2nc(SCC(=O)N/N=C/c3ccc(N(C)C)cc3)[nH]c2-c2ccc(OC)cc2)cc1`: the TGI in the experiment on EKVX NSCLC, with HCC-2998 colon, in the experiment on HL-60(TB) leukemia, in the experiment with HT29 colon, in the experiment with KM12 colon and in the experiment on M14 melanoma was over 100 µM each time. The TGI in the experiment on MDA-MB-435, in the experiment on NCI-H23 lung, with NCI-H460 lung, with RXF 393 renal, in the experiment on SF-268 CNS and in the experiment on SF-295 CNS was over 100 µM in each case. The TGI in the experiment on SK-MEL-2 melanoma, in the experiment on SK-OV-3 ovarian, in the experiment on SN12C renal, with SNB-75 CNS, with SW-620 colon and with TK-10 renal was over 100 µM throughout. In the experiment on UACC-257 melanoma, this molecule showed a TGI of over 100 µM.
Consider `NS(=O)(=O)c1cc(Cl)c(NC(=S)NC(=O)Nc2ccc(Cl)c(Cl)c2)c(Cl)c1`, for which the TGI is over 100 µM in the experiment with EKVX NSCLC; over 100 µM with HCC-2998 colon; 68.4 µM in the experiment with HL-60(TB) leukemia; over 100 µM in the experiment on HT29 colon; over 100 µM with KM12 colon; over 100 µM with M14 melanoma. Moreover, the TGI in the experiment on MDA-MB-435, in the experiment on NCI-H23 lung, in the experiment on NCI-H460 lung, with RXF 393 renal, in the experiment on SF-268 CNS and with SF-295 CNS was over 100 µM each time. The TGI with SK-MEL-2 melanoma was 90.6 µM; with SK-OV-3 ovarian, over 100 µM; in the experiment with SN12C renal, over 100 µM; in the experiment with SNB-75 CNS, over 100 µM; with SW-620 colon, over 100 µM; in the experiment on TK-10 renal, over 100 µM. The same molecule registered a TGI in the experiment with UACC-257 melanoma of over 100 µM.
For the molecule `O=c1[nH]c(=O)n(C2OC(CO)C(O)C2O)c2nc(-c3ccc(-c4ccccc4)cc3)cnc12` (centres undefined), the TGI with EKVX NSCLC, with HCC-2998 colon, with HT29 colon, in the experiment with KM12 colon, in the experiment with M14 melanoma and with MDA-MB-435 was over 100 µM in each case. The TGI in the experiment on NCI-H23 lung, in the experiment with NCI-H460 lung, with RPMI-8226 leukemia, in the experiment with RXF 393 renal, in the experiment on SF-268 CNS and in the experiment with SF-295 CNS was over 100 µM in each case. Also, the TGI in the experiment on SK-MEL-2 melanoma, in the experiment with SK-OV-3 ovarian, in the experiment with SN12C renal, in the experiment with SNB-75 CNS, in the experiment with SW-620 colon and with TK-10 renal was over 100 µM in each case. The same molecule displayed a TGI with UACC-257 melanoma of over 100 µM.
For the molecule `CCOC(=O)c1c(C)nc2c3ccccc3c(C#N)c(C)n12`, the TGI with EKVX NSCLC, in the experiment with HCC-2998 colon, in the experiment on HL-60(TB) leukemia, in the experiment with KM12 colon, in the experiment on MDA-MB-435 and in the experiment on NCI-H460 lung was over 100 µM each time. Moreover, the TGI in the experiment on RPMI-8226 leukemia is over 100 µM; in the experiment with RXF 393 renal, over 100 µM; in the experiment with SF-295 CNS it was over 100 µM; in the experiment with SK-MEL-2 melanoma, over 100 µM; in the experiment with SK-OV-3 ovarian it was 51.3 µM; in the experiment on SN12C renal, over 100 µM. Further, the TGI in the experiment with SNB-75 CNS is 75.8 µM; in the experiment with SW-620 colon, over 100 µM; in the experiment with TK-10 renal, over 100 µM; in the experiment on UACC-257 melanoma, over 100 µM.
As for `[O-][n+]1ccccc1Sc1nc(Sc2cccc[n+]2[O-])nc(Sc2cccc[n+]2[O-])n1`, the TGI in the experiment on EKVX NSCLC is 5.81 µM; in the experiment on HCC-2998 colon it was 2.89 µM; in the experiment with HL-60(TB) leukemia, over 100 µM; in the experiment with HT29 colon, 2.61 µM; with KM12 colon, 3.88 µM; in the experiment with M14 melanoma, 3.06 µM. The TGI with MDA-MB-435 came out at 4.15 µM; in the experiment with NCI-H23 lung it was 3.87 µM; in the experiment with NCI-H460 lung, 4.22 µM; with RXF 393 renal, 2.23 µM; with SF-268 CNS it was 10.1 µM; with SF-295 CNS, 11.1 µM. Moreover, the TGI with SK-MEL-2 melanoma was found to be 3.71 µM; with SK-OV-3 ovarian, 18.6 µM; with SN12C renal it was 3.48 µM; with SNB-75 CNS, 18.6 µM; with TK-10 renal it was 3.82 µM; in the experiment with UACC-257 melanoma it was 6.23 µM.
